Data on two compounds can be found in patent US20100022584A1, “Modulation of Glutamine Synthetase Activity” (priority 2006, published 2010).

Experiment [1] addresses T1, glutamine synthetase mutant S53A Y397V (Escherichia coli, UniProt P0A9C5, S54A/Y398V).
T1 construct: made in house; host or cells: E. coli YMC11 (glutamine synthetase auxotroph), pBluescript II SK+
T1 sequence (P0A9C5 2-469 S54A/Y398V limits assumed): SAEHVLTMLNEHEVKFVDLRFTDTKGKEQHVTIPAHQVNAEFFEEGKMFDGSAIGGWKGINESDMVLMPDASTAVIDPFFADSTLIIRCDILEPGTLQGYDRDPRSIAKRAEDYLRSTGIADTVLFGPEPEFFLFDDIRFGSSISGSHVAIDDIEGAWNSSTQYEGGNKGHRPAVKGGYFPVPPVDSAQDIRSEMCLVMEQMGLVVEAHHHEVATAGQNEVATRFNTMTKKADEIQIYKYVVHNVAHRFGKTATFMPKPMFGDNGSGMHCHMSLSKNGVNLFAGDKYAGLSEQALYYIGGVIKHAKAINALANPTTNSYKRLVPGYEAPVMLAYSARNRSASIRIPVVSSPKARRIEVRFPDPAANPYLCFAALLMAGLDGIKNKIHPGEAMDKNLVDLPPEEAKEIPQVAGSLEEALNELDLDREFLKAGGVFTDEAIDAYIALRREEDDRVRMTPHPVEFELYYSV
Description: HPLC forward-reaction glutamine synthetase assay with serine protease inhibitors. The experiment is classed as biochemical, E. coli. To be noted: 1 mM inhibitor; for % Reduction in ADP-based Specific Activity / % Reduction in Glutamine-based Specific Activity: 60 min pre-incubation, vs no-inhibitor control, positive = activity increased; for % Conversion: glutamine-based divided by ADP-based specific activity.

The target of experiment [2] is T2, glutamine synthetase mutant S52A Y397V (Escherichia coli, UniProt P0A9C5, S53A/Y398V).
T2 construct: made in house; host or cells: E. coli YMC11 (glutamine synthetase auxotroph), pBluescript II SK+
T2 sequence (P0A9C5 2-469 S53A/Y398V limits assumed): T1 sequence (P0A9C5 2-469 S54A/Y398V limits assumed) with S52A, A53S
Described as above. To be noted: 1 mM inhibitor; for inhibition of the enzyme (in words): HPLC assays; for % Conversion: glutamine-based divided by ADP-based specific activity. The experiment is classed as biochemical, E. coli.

Residue numbers refer to the chain shown, from its start.

On to `NCCc1ccc(S(=O)(=O)F)cc1` [AEBSF], for which the “inhibition of the enzyme (in words)” value in experiment [1] (HPLC assays) and in experiment [2] was “appeared to cause inhibition” throughout. Besides, the figures for the “% Reduction in ADP-based Specific Activity” value in experiment [1] (Mg assay) and in experiment [1] (Mn assay) were −100.00% and “+14.80%”, respectively. For the same compound, the entries for the “% Reduction in Glutamine-based Specific Activity” value in experiment [1] (Mg assay) and in experiment [1] (Mn assay) were −55.60% and “+5.16%”, respectively. The results for the “% Conversion” value in experiment [1] (Mn assay) and in experiment [2] (Mn assay) were 75% and 85%, respectively.

For the compound `O=S(=O)(F)Cc1ccccc1` [PMSF], in experiment [1] (Mn assay), the “% Reduction in ADP-based Specific Activity” value is recorded as “+39.67%”, the “% Reduction in Glutamine-based Specific Activity” value was “+6.07%” and the “% Conversion” value is 63%. Moreover, in experiment [2], the “inhibition of the enzyme (in words)” value is reported as “found to inhibit”. The “% Conversion” value in experiment [2] (Mg assay) was 49%. For the same compound, the “% Conversion” value in experiment [2] (Mn assay) stood at 67%.
